This is an account of results in patent publication US20220031845A1, “DILUENTS FOR COMPOSITIONS OF CANNABINOIDS AND USES THEREOF” (KANABO RESEARCH LTD., priority 2019, published 2022).

Data set [1] is described as follows: Stability of oversaturated CBD blend to crystallization. It counts as physicochemical. Set-up: key: +: crystallization; −: no crystallization. To be noted: one week at 10 or 22° C. On the procedure: Vials were prepared with 5 ml of oversaturated blend of CBD with different diluent. The blend was composed of CBD distilled oil (containing 90% CBD and less than 1% bisabolol) or CBD isolate (more than 99% CBD), and natural bisabolol and phytol. The stability of the solution to crystallization in the vial after a week of storage at either 10 or 22° C. is presented in Table 7.

A short description of data set [2]: Crystallization of CBD blends with different diluents after addition of crystal seed. It counts as physicochemical. Set-up: key to crystallization of CBD: +: crystallization; −: no crystallization. To be noted: for crystallization of CBD: 1% flavor, crystal seed, 22° C., one week; for concentration of CBD stabilized in the composition: at the diluent concentration that prevents crystallization. As for the experimental part: 5 g of the following different blends were prepared. The blends contained a CBD distillate containing 92% of CBD, a diluent at different concentrations and 1% natural flavor (Girl School cookies from Floraplex—USA). The diluent was phytol, natural bisabolol or a combination of phytol and natural bisabolol. 2 mg of crystal seed were added to the vial to initiate crystallization. The vials were stored at 22° C. The vials were checked after a week to see if there is crystallization.

The mark [3] stands for this setting: 28% diluent in blend, CBD distillate 92% CBD.
[4] abbreviates: 32% diluent in blend, CBD distillate 92% CBD.
[5] abbreviates: 36% diluent in blend, CBD distillate 92% CBD.

With `CC(C)=CCC[C@](C)(O)C1CC=C(C)CC1` (stereo partly drawn) [Bisabolol, α-(−)-bisabolol], the Crystallization entry in data set [1] (CBD 90% distilled oil, 5% diluent in blend) is “−”; in data set [1] (CBD 90% distilled oil, 10% diluent in blend) it was “−”; in data set [1] (CBD 90% distilled oil, 20% diluent in blend), “−”; in data set [1] (CBD isolate, 10% diluent in blend), “+”; in data set [1] (CBD isolate, 20% diluent in blend), “−”. Also, the figures for the “crystallization of CBD” value in data set [2] (setting [3]), in data set [2] (setting [4]) and in data set [2] (setting [5]) were “+”, “−” and “−”, respectively. The “concentration of CBD stabilized in the composition” value in data set [2] is “up to 65%”.
`C/C(=C\CO)CCC[C@H](C)CCC[C@H](C)CCCC(C)C` [Phytol, phytol]: in data set [1] (CBD 90% distilled oil, 15% diluent in blend), the Crystallization result is “+”. In addition, the “crystallization of CBD” value in data set [2] (setting [3]) is reported as “+”; in data set [2] (setting [4]), “+”; in data set [2] (setting [5]), “+”; in data set [2] (40% diluent in blend, CBD distillate 92% CBD) it was “+”; in data set [2] (44% diluent in blend, CBD distillate 92% CBD) it was “−”. The “concentration of CBD stabilized in the composition” value in data set [2] is on record as “about 50%”. In addition, in data set [2] (upon addition of crystallization seeds, CBD distillate 92% CBD), the “concentration of diluent required to prevent crystallization” value was “about 44%”.
